Legend:
[1] = tested on: Alcaligenes faecalis ATCC 8750; conditions: Gram − bacteria; cited from earlier work
[2] = tested on: Clostridium perfringens ATCC 77454; conditions: Gram + bacteria; cited from earlier work
[3] = tested on: Rhodotorula rubra CECT 1158; conditions: Yeast; cited from earlier work
[4] = tested on: Penicillium funiculosum CECT 2914; conditions: Fungi; cited from earlier work
[5] = tested on: Arthrobacter oxydans ATCC 8010; conditions: Gram + bacteria; cited from earlier work
[6] = tested on: Aspergillus niger ATCC 14604; conditions: Fungi; cited from earlier work
[7] = tested on: Leuconostoc mesenteroides CETC 912; conditions: Gram + bacteria; cited from earlier work
[8] = tested on: S. typhimurium LPS; experiment: Endotoxin deactivation as a function of LAE concentration, LAL assay; assay type: biochemical, Salmonella typhimurium; conditions: for CONCENTRATION Endotoxin: S. typhimurium LPS 10 μg/ml, 2 hours at 37° C., control without LAE 17000
Method: The 1 mg/ml stock solution of S. typhimurium LPS was prepared using the commercially available LPS obtained from the List Biological Laboratories, Inc. (cat #225). The 20 μg/ml solution of LPS was prepared by serially diluting the stock. All the LPS solutions were kept at refrigeration temperatures according to the instructions provided by the manufacturer.
The solutions of LAE prepared were used in the experiment. For the procedure, 500 μl of 20 μg/ml of endotoxins were mixed with 500 μl of LAE solution (10, 20, 40, 60 and 100 μg/ml) in glass reaction tubes, giving the final concentration of LPS, 10 μg/ml and the concentration range of LAE, 5-50 μg/ml. As a negative control, LPS was mixed with 1 mg/ml aqueous solution of propylene glycol. The mixture was incubated for 2 hours at 37° C. Each sample was serially diluted using the LAL reagent water to be assayed for the endotoxin activity.

[9] = tested on: Penicillium chrysogenum CECT 2802; conditions: Fungi; cited from earlier work
[10] = tested on: Citrobacter freundii ATCC 22636; conditions: Gram − bacteria; cited from earlier work
[11] = tested on: Human epithelial cell lines (KB); experiment: LPS-induced release of peptidases from human cell culture, fluorigenic substrate; assay type: cell-based; conditions: for Peptidase released: LAE 2 μg/ml; for Peptidase released / reduction of the toxicity of LPS (measured by fluorescence release): KB cells
Method: Human epithelial cell lines (KB) were obtained from American Cell type collection and grown in BGJ medium (Gibco, Buffalo, N.Y.) at 37° C. with 5% CO2. The medium was supplemented with 5% heated calf serum. Cells were placed in 24 well dishes with 0.5 ml medium per well. The release of peptidases from the human cell lines in response to LPS was measured by a coumarin based fluorigenic substrate utilized to study eukaryotic enzymes that degrade extracellular matrix proteins (collagen and fibronectin) and inactivated by inhibitors of matrix of metalloprotease (Yang et al. Abstract 105 at the 105th ASM general meeting).
The release of peptidase was measured by sensitive fluorescence test.

[12] = tested on: Lactobacillus delbrueckii ssp lactis CECT 372; conditions: Gram + bacteria; cited from earlier work
[13] = tested on: Proteus mirabilis CECT 170; conditions: Gram − bacteria; cited from earlier work
[14] = tested on: Candida albicans ATCC 10231; conditions: Yeast; cited from earlier work
[15] = tested on: Staphylococcus aureus ATCC 6538; conditions: Gram + bacteria; cited from earlier work
[16] = tested on: Enterobacter aerogenes CECT 689; conditions: Gram − bacteria; cited from earlier work
[17] = tested on: Serratia marcenses CECT 274; conditions: Gram − bacteria; cited from earlier work
[18] = tested on: Escherichia coli ATCC 8739; conditions: Gram − bacteria; cited from earlier work
[19] = tested on: Bacillus subtilis ATCC 6633; conditions: Gram + bacteria; cited from earlier work
[20] = tested on: Micrococcus luteus ATCC 9631; conditions: Gram + bacteria; cited from earlier work
[21] = tested on: Pseudomonas aeruginosa ATCC 9027; conditions: Gram − bacteria; cited from earlier work
[22] = tested on: Klebsiella pneumoniae var pneumoniae CECT 178; conditions: Gram − bacteria; cited from earlier work
[23] = animals and humans; cited from earlier work
[24] = tested on: Chaetonium globosum ATCC 6205; conditions: Fungi; cited from earlier work
[25] = rats; cited from earlier work
[26] = tested on: Salmonella typhimurium ATCC 16028; conditions: Gram − bacteria; cited from earlier work
[27] = tested on: Gliocadium virens ATCC 4645; conditions: Fungi; cited from earlier work
[28] = tested on: Aureobasidium pullulans ATCC 9348; conditions: Fungi; cited from earlier work
[29] = tested on: Listeria monocytogenes ATCC 7644; conditions: Gram + bacteria; cited from earlier work
[30] = tested on: Saccharomyces cerevisiae ATCC 9763; conditions: Yeast; cited from earlier work
[31] = tested on: Bacillus cereus var mycoide ATCC 11778; conditions: Gram + bacteria; cited from earlier work
[32] = tested on: endotoxins produced by E. coli O113:H10; experiment: Endotoxin deactivation by LAE, LAL assay (turbidimetric, pyrochrome); assay type: biochemical; conditions: E. coli O113:H10 endotoxin 12.5 μg/ml, incubated two hours at 37° C., control without LAE 120
Method: Turbidimetric LAL test was conducted according to the instructions provided by the manufacturer (Pyrotell-T, The associates of Cape Cod, Inc.). The standard curve was built based on 300, 30, 3, 0.3, 0.03 and 0.003 EU/ml. The same endotoxin in concentrations of 12.5 μg/ml was used in the experiment.
LAE was applied in concentrations of 0, 5, 10, 20, 30, 50 μg/ml to assess this compound's ability to deactivate endotoxins. LAL reagent water (LRW) was used to make all the endotoxin dilutions including the standards. MIRENAT-CF is a 10.5% solution of LAE in Propylene glycol, so the dilutions of MIRENAT-CF were initially made in propylene glycol, so that concentration of LAE was kept as the only variable. For the presumptive deactivation procedure, the endotoxin was incubated together with LAE for two hours at 37° C. The turbidimetric assay was conducted two times using the onset time for OD405=0.05. The pyrochrome assay was conducted once using the same template on plates.

[33] = tested on: Bordetella bronchiseptica ATCC 4617; conditions: Gram − bacteria; cited from earlier work

For “ethyl ester of the lauramide of the arginine monohydrochloride [LAE]”, which M.I.C. [1] is on record?
Its M.I.C. is 64 ppm.

And the M.I.C. [2]?
Its M.I.C. is 16 ppm.

And the M.I.C. [3]?
The M.I.C. was 16 ppm.

What about the M.I.C. [4] of the same substance?
The M.I.C. was 16 ppm.

What about the M.I.C. [5] of the same substance?
The M.I.C. was 64 ppm.

And the M.I.C. [6]?
Its M.I.C. is 32 ppm.

And the M.I.C. [7]?
Its M.I.C. is 32 ppm.

And the “CONCENTRATION Endotoxin” value ([8]; LAE 5 μg/ml (as MIRENAT-CF))?
The value was 4000 EU/ml × 10E3.

And the “CONCENTRATION Endotoxin” value ([8]; LAE 10 μg/ml (as MIRENAT-CF))?
The value was 3995 EU/ml × 10E3.

What about the “CONCENTRATION Endotoxin” value ([8]; LAE 20 μg/ml (as MIRENAT-CF)) of the same substance?
Its value is 3000 EU/ml × 10E3.

What about the “CONCENTRATION Endotoxin” value ([8]; LAE 30 μg/ml (as MIRENAT-CF)) of the same substance?
Its value is 4000 EU/ml × 10E3.

What about the “CONCENTRATION Endotoxin” value ([8]; LAE 50 μg/ml (as MIRENAT-CF)) of the same substance?
Its value is 2500 EU/ml × 10E3.

And the “dose response of the deactivation effect” value ([8]; LAE concentration range 5-50 μg/ml)?
The value was “does not follow a dose response”.

And the “effect on the activity of S. typhimurium endotoxins” value ([8]; LAE in concentrations of 5-50 μg/ml)?
The value was “significantly decreased”.

What about the M.I.C. [9] of the same substance?
The M.I.C. was 128 ppm.

And the M.I.C. [10]?
The M.I.C. was 64 ppm.

And the “release of peptidase by LAE per se” value ([11]; 2 μg LAE/ml without LPS, similar to the blank)?
Its value is “less than 300 units”.

And the “peptidase response to LPS” value ([11]; LAE 2 μg/ml added to LPS, both doses of LPS tested (10 and 20 μg/ml))?
Its value is “significant reduction of peptidase response”.

What about the Peptidase released ([11]; LPS 0 μg/ml, blank sample 400) of the same substance?
Its Peptidase released is 296 Fluorescence units.

And the Peptidase released ([11]; LPS 10 μg/ml, LPS alone 900)?
The Peptidase released was 580 Fluorescence units.

And the Peptidase released ([11]; LPS 20 μg/ml, LPS alone 1200)?
The Peptidase released was 655 Fluorescence units.

What about the “reduction of the toxicity of LPS (measured by fluorescence release)” value ([11]; LPS 10 μg/ml pre-mixed with 2 μg/ml of LAE) of the same substance?
Its value is 35.6%.

And the “reduction of the toxicity of LPS (measured by fluorescence release)” value ([11]; LPS 20 μg/ml pre-mixed with 2 μg/ml of LAE)?
Its value is 45.4%.

And the M.I.C. [12]?
Its M.I.C. is 16 ppm.

And the M.I.C. [13]?
Its M.I.C. is 64 ppm.

And the M.I.C. [14]?
Its M.I.C. is 16 ppm.

What about the M.I.C. [15] of the same substance?
Its M.I.C. is 32 ppm.

What about the M.I.C. [16] of the same substance?
Its M.I.C. is 32 ppm.

What about the M.I.C. [17] of the same substance?
Its M.I.C. is 2 ppm.

What about the M.I.C. [18] of the same substance?
Its M.I.C. is 32 ppm.

And the M.I.C. [19]?
Its M.I.C. is 16 ppm.

And the M.I.C. [20]?
The M.I.C. was 128 ppm.

What about the M.I.C. [21] of the same substance?
The M.I.C. was 32 ppm.

What about the M.I.C. [22] of the same substance?
The M.I.C. was 32 ppm.

And the toxicity [23]?
Its toxicity is “completely harmless to animals and humans”.

What about the M.I.C. [24] of the same substance?
The M.I.C. was 16 ppm.

And the absorption and metabolism [25]?
The absorption and metabolism was “fast absorption and metabolisation into naturally-occurring amino acids and the fatty acid lauric acid”.

And the M.I.C. [26]?
The M.I.C. was 32 ppm.

What about the M.I.C. [27] of the same substance?
The M.I.C. was 32 ppm.

What about the M.I.C. [28] of the same substance?
Its M.I.C. is 16 ppm.

And the M.I.C. [29]?
Its M.I.C. is 10 ppm.

What about the M.I.C. [30] of the same substance?
The M.I.C. was 32 ppm.

And the M.I.C. [31]?
Its M.I.C. is 32 ppm.

And the “CONCENTRATION Endotoxin” value ([32]; LAE 10 μg/ml)?
Its value is 80 EU/ml × 10E3.

And the “CONCENTRATION Endotoxin” value ([32]; LAE 50 μg/ml)?
Its value is 61 EU/ml × 10E3.

And the M.I.C. [33]?
The M.I.C. was 128 ppm.

Reference: patent US20110230558A1 (priority 2008, published 2011)
